# In ChEMBL document CHEMBL1138929, “Development of peptidic dopamine transporter inhibitors via aromatic modification-mediated conformational restriction” (J Med Chem, 2006):
# Starred links: 1 amine or outer side, 2 acyl side, 3 side chain; linkers in the order of their positions; H or OH if unused. Non-standard residues stand in square brackets, D forms with d. Residues, ends and D or L forms follow the SMILES beside them. *: point of attachment. X1 = O=C([C@H](Cc1ccc(O)c(Cc2ccccc2)c1)N[*:1])[*:2]; Bpa = N[C@@H](Cc1ccc(C(=O)c2ccccc2)cc1)C(=O)O; Bip = N[C@@H](Cc1ccc(-c2ccccc2)cc1)C(=O)O; 1Nal = N[C@@H](Cc1cccc2ccccc12)C(=O)O; 2Nal = N[C@@H](Cc1ccc2ccccc2c1)C(=O)O; Bn = c1ccc(C*)cc1
# Assays:
# [1] = target: T1, Sodium-dependent dopamine transporter (Rattus norvegicus, UniProt P23977); assay: Inhibition of rat DAT-mediated [3H]dopamine uptake in CHO cells; assay type: cell-based
# Mus musculus [2] = assay: Effect on cocaine-induced place preference in BALB/c mouse at 10 mg/kg, sc measured as pre and procondition time difference; assay type: functional; conditions: route subcutaneous
# Mus musculus [3] = assay: Effect on place preference in BALB/c mouse at 20 mg/kg, sc measured as pre and procondition time difference; assay type: functional; conditions: route subcutaneous
# Mus musculus [4] = assay: Effect on 10 mg/kg cocaine-induced place preference in BALB/c mouse at 10 mg/kg, sc measured as pre and procondition time difference; assay type: functional
# [5] = target: Sodium-dependent noradrenaline transporter (Rattus norvegicus) (UniProt P31652); assay: Inhibition of rat NET-mediated norepinephrine uptake in CHO cells; conditions: cho
# [6] = target: Sodium-dependent serotonin transporter (Rattus norvegicus, UniProt P31652); assay: Inhibition of rat SERT-mediated serotonin uptake in CHO cells; assay type: cell-based
# [7] = target: Sodium- and chloride-dependent GABA transporter 1 (Mus musculus, UniProt P31648); assay: Inhibition of mouse GAT1-mediated gamma-aminobutyric acid uptake in CHO cells; assay type: cell-based
# [8] = target: T1, Sodium-dependent dopamine transporter; assay: Inhibition of [3H]WIN-35428 binding to rat DAT expressed in D8 cells; assay type: cell-based
# [9] = target: Sodium-dependent noradrenaline transporter, Rattus norvegicus; assay: Inhibition of rat NET-mediated norepinephrine uptake in CHO cells
# Mus musculus [10] = assay: Effect on place preference in BALB/c mouse at 10 mg/kg measured as pre and procondition time difference; assay type: functional
# [11] = substrate: CC(c1ccc(-c2ccc(C[C@H](N)C(=O)O)cc2)cc1)[C@H](N)C(=O)N[C@@H](Cc1ccc(O)cc1)C(=O)N[C@H](C(=O)N1CCC[C@H]1C(=O)N[C@H](C(=O)NCC(=O)O)[C@@H](C)OCc1ccccc1)[C@@H](C)O; conditions: Rattus norvegicus; D8; 600 nM
# Description: Inhibition of rat DAT-mediated [3H]dopamine accumulation in D8 cells at 600 nM
# [12] = substrate: CC(c1ccc(-c2ccc(C[C@H](N)C(=O)O)cc2)cc1)[C@H](N)C(=O)N[C@@H](Cc1ccc(O)cc1)C(=O)N[C@H](C(=O)N1CCC[C@H]1C(=O)N[C@H](C(=O)NCC(=O)O)[C@@H](C)OCc1ccccc1)[C@@H](C)O; conditions: Rattus norvegicus; D8; 250 nM
# Description: Inhibition of rat DAT-mediated [3H]dopamine accumulation in D8 cells at 250 nM
# Sodium-dependent serotonin transporter, sequence (P31652 whole entry): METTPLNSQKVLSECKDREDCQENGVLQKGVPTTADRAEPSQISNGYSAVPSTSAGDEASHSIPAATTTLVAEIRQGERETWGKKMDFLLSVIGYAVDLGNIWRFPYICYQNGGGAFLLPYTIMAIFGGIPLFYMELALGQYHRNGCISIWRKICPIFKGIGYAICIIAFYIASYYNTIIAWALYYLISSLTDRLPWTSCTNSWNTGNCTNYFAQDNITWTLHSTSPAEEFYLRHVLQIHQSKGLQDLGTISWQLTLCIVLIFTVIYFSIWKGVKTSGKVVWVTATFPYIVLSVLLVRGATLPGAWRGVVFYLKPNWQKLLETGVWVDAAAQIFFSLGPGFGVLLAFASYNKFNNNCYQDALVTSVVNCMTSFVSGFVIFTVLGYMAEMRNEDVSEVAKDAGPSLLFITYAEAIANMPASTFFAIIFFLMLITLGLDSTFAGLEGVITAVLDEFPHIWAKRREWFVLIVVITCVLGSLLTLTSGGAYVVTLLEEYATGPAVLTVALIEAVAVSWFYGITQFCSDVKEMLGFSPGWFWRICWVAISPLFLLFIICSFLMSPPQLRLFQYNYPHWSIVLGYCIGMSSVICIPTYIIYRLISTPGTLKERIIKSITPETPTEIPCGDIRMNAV
# Sodium-dependent noradrenaline transporter (Rattus norvegicus), sequence (P31652 whole entry, looked up): as the sequence (P31652 whole entry) above
molecule,measurement,setting,value
C[C@@H](O)[C@H](NC(=O)[C@H](CCCCN)NC(=O)[C@@H]1CCCN1C(=O)[C@@H](NC(=O)[C@H](Cc1ccc(O)cc1)NC(=O)[C@H](Cc1ccccc1)NC(=O)[C@@H](N)Cc1ccccc1)[C@@H](C)O)C(=O)O (H-FFYTPKT-OH),IC50,[1],> 1000 µM
C[C@@H](O)[C@H](NC(=O)[C@H](Cc1ccc(O)cc1)NC(=O)[C@@H](N)Cc1cccc2ccccc12)C(=O)N1CCC[C@H]1C(=O)N[C@@H](CCCCN)C(=O)N[C@H](C(=O)NCC(=O)O)[C@@H](C)OCc1ccccc1 (H-[1Nal]YTPKT(Bn)G-OH),IC50,[1],199 µM
C[C@@H](O)[C@H](NC(=O)[C@H](Cc1ccc(O)cc1)NC(=O)[C@@H](N)Cc1ccc2ccccc2c1)C(=O)N1CCC[C@H]1C(=O)N[C@@H](CCCCN)C(=O)N[C@H](C(=O)NCC(=O)O)[C@@H](C)OCc1ccccc1 (H-[2Nal]YTPKT(Bn)G-OH),IC50,[1],184 µM
C[C@H](NC(=O)[C@@H](N)Cc1ccc(-c2ccccc2)cc1)C(=O)N[C@H](C(=O)N1CCC[C@H]1C(=O)N[C@@H](CCCCN)C(=O)N[C@H](C(=O)NCC(=O)O)[C@@H](C)OCc1ccccc1)[C@@H](C)O (H-[Bip]ATPKT(Bn)G-OH),IC50,[1]; cho,173 µM
C[C@H](NC(=O)[C@H](Cc1ccc(O)cc1)NC(=O)[C@@H](N)Cc1ccc(-c2ccccc2)cc1)C(=O)N1CCC[C@H]1C(=O)N[C@@H](CCCCN)C(=O)N[C@H](C(=O)NCC(=O)O)[C@@H](C)OCc1ccccc1 (H-[Bip]YAPKT(Bn)G-OH),IC50,[1]; cho,11 µM
C[C@@H](O)[C@H](NC(=O)[C@H](CCCCN)NC(=O)[C@@H]1CCCN1C(=O)[C@@H](NC(=O)[C@H](Cc1ccc(O)cc1)NC(=O)[C@@H](N)Cc1ccc(-c2ccccc2)cc1)[C@@H](C)OCc1ccccc1)C(=O)NCC(=O)O (H-[Bip]YT(Bn)PKTG-OH),IC50,[1]; cho,20 µM
C[C@H](NC(=O)[C@@H](NC(=O)[C@H](Cc1ccc(O)cc1)NC(=O)[C@@H](N)Cc1ccc(-c2ccccc2)cc1)[C@@H](C)O)C(=O)N[C@@H](CCCCN)C(=O)N[C@H](C(=O)NCC(=O)O)[C@@H](C)OCc1ccccc1 (H-[Bip]YTAKT(Bn)G-OH),IC50,[1]; cho,> 1000 µM
C[C@H](NC(=O)[C@@H](NC(=O)[C@H](Cc1ccc(O)cc1)NC(=O)[C@@H](N)Cc1ccc(-c2ccccc2)cc1)[C@@H](C)O)C(=O)N[C@H](C(=O)NCC(=O)O)[C@@H](C)OCc1ccccc1 (H-[Bip]YTAT(Bn)G-OH) [listing 1 of 2 here],IC50,[1]; cho,> 1000 µM
C[C@H](NC(=O)[C@@H](NC(=O)[C@H](Cc1ccc(O)cc1)NC(=O)[C@@H](N)Cc1ccc(-c2ccccc2)cc1)[C@@H](C)O)C(=O)N[C@H](C(=O)NCC(=O)O)[C@@H](C)OCc1ccccc1 (H-[Bip]YTAT(Bn)G-OH) [listing 2 of 2 here],Activity,Mus musculus [2],209 s
same,Activity,Mus musculus [3],-14 s
same,Activity,Mus musculus [4],200 s
C[C@H](NC(=O)[C@@H]1CCCN1C(=O)[C@@H](NC(=O)[C@H](Cc1ccc(O)cc1)NC(=O)[C@@H](N)Cc1ccc(-c2ccccc2)cc1)[C@@H](C)O)C(=O)N[C@H](C(=O)NCC(=O)O)[C@@H](C)OCc1ccccc1 (H-[Bip]YTPAT(Bn)G-OH),IC50,[1]; cho,1.7 µM
C[C@@H](O)[C@H](NC(=O)[C@H](Cc1ccc(O)cc1)NC(=O)[C@@H](N)Cc1ccc(-c2ccccc2)cc1)C(=O)N1CCC[C@H]1C(=O)N[C@@H](CCCCN)C(=O)N[C@H](C(=O)NCC(=O)O)[C@@H](C)OCc1ccccc1 (H-[Bip]YTPKT(Bn)G-OH),IC50,[1]; cho,1.8 µM
C[C@@H](O)[C@H](NC(=O)[C@H](CCCCN)NC(=O)[C@@H]1CCCN1C(=O)[C@@H](NC(=O)[C@H](Cc1ccc(O)cc1)NC(=O)[C@@H](N)Cc1ccc(-c2ccccc2)cc1)[C@@H](C)O)C(=O)O (H-[Bip]YTPKT-OH),IC50,[1]; cho,19 µM
same,IC50,[5],> 1000 µM
same,IC50,[6]; cho,> 1000 µM
same,IC50,[7]; cho,> 1000 µM
C[C@@H](O)[C@H](NC(=O)[C@H](Cc1ccc(O)cc1)NC(=O)[C@@H](N)Cc1ccc(-c2ccccc2)cc1)C(=O)N1CCC[C@H]1C(=O)N[C@H](C(=O)NCC(=O)O)[C@@H](C)OCc1ccccc1 (H-[Bip]YTPT(Bn)G-OH) [listing 1 of 2 here],IC50,[8],0.494 µM
same,IC50,[1],0.3 µM
same,IC50,[9],90 µM
same,IC50,[6],110 µM
same,IC50,[7],> 1000 µM
C[C@@H](O)[C@H](NC(=O)[C@H](Cc1ccc(O)cc1)NC(=O)[C@@H](N)Cc1ccc(-c2ccccc2)cc1)C(=O)N1CCC[C@H]1C(=O)N[C@H](C(=O)NCC(=O)O)[C@@H](C)OCc1ccccc1 (H-[Bip]YTPT(Bn)G-OH) [listing 2 of 2 here],Activity,Mus musculus [2],61 s
same,Activity,Mus musculus [3],-16 s
same,Activity,Mus musculus [4],78 s
C[C@@H](O)[C@H](NC(=O)[C@H](CCCCN)NC(=O)[C@@H]1CCCN1C(=O)[C@@H](NC(=O)[C@H](Cc1ccc(O)c(Cc2ccccc2)c1)NC(=O)[C@@H](N)Cc1ccc(-c2ccccc2)cc1)[C@@H](C)O)C(=O)O (H-[Bip][X1]TPKT-OH),IC50,[1]; cho,10 µM
C[C@@H](O)[C@H](NC(=O)[C@H](Cc1ccc(O)cc1)NC(=O)[C@@H](N)Cc1ccc(C(=O)c2ccccc2)cc1)C(=O)N1CCC[C@H]1C(=O)N[C@@H](CCCCN)C(=O)N[C@H](C(=O)NCC(=O)O)[C@@H](C)OCc1ccccc1 (H-[Bpa]YTPKT(Bn)G-OH),IC50,[1],239 µM
COC(=O)[C@H]1[C@@H](OC(=O)c2ccccc2)C[C@@H]2CC[C@H]1N2C [COCAINE],Activity,Mus musculus [10],194 s
"Sodium-dependent dopamine transporter (Rattus norvegicus), P23977 (protein) MSKSKCSVGPMSSVVAPAKESNAVGPREVELILVKEQNGVQLTNSTLINPPQTPVEAQERETWSKKIDFLLSVIGFAVDLANVWRFPYLCYKNGGGAFLVPYLLFMVIAGMPLFYMELALGQFNREGAAGVWKICPVLKGVGFTVILISFYVGFFYNVIIAWALHYFFSSFTMDLPWIHCNNTWNSPNCSDAHASNSSDGLGLNDTFGTTPAAEYFERGVLHLHQSRGIDDLGPPRWQLTACLVLVIVLLYFSLWKGVKTSGKVVWITATMPYVVLTALLLRGVTLPGAMDGIRAYLSVDFYRLCEASVWIDAATQVCFSLGVGFGVLIAFSSYNKFTNNCYRDAIITTSINSLTSFSSGFVVFSFLGYMAQKHNVPIRDVATDGPGLIFIIYPEAIATLPLSSAWAAVFFLMLLTLGIDSAMGGMESVITGLVDEFQLLHRHRELFTLGIVLATFLLSLFCVTNGGIYVFTLLDHFAAGTSILFGVLIEAIGVAWFYGVQQFSDDIKQMTGQRPNLYWRLCWKLVSPCFLLYVVVVSIVTFRPPHYGAYIFPDWANALGWIIATSSMAMVPIYATYKFCSLPGSFREKLAYAITPEKDHQLVDRGEVRQFTLRHWLLL",Km,[11],3.6 µM
same,Km,[12],2.42 µM
